In general, IC50 refers to the concentration needed to halve the response being measured.

This is an account of results in ChEMBL document CHEMBL1143952, “Synthesis and characterization of carnitine nitro-derivatives” (Bioorg Med Chem, 2008).

Data set [1] is described as follows: Metabolic stability in human RBC assessed as nitrite or nitrate production after 24 hrs. The following applies: erythrocyte. The class given is ADME, cell-based.
The nature of data set [2]: Metabolic stability in human plasma assessed as biotransformation after 24 hrs relative to unaltered compound.
A short description of data set [3]: Metabolic stability in phosphate buffer saline assessed as biotransformation after 24 hrs relative to unaltered compound. The class given is ADME. The following applies: phosphate buffered saline; read-out: Activity.
Data set [4] can be described thus: Metabolic stability in human RBC assessed as biotransformation after 24 hrs relative to unaltered compound. The class given is ADME, cell-based, Erythrocyte. The following applies: red blood cells (RBC), read-out: Activity.
Data set [5] in a line: Metabolic stability in human saliva assessed as biotransformation after 24 hrs relative to unaltered compound. The following applies: read-out: Activity. In kind it is ADME.
The target of data set [6] is T1, Organic cation/carnitine transporter 2 (Rattus norvegicus, UniProt O70594).
T1 sequence (O70594 whole entry): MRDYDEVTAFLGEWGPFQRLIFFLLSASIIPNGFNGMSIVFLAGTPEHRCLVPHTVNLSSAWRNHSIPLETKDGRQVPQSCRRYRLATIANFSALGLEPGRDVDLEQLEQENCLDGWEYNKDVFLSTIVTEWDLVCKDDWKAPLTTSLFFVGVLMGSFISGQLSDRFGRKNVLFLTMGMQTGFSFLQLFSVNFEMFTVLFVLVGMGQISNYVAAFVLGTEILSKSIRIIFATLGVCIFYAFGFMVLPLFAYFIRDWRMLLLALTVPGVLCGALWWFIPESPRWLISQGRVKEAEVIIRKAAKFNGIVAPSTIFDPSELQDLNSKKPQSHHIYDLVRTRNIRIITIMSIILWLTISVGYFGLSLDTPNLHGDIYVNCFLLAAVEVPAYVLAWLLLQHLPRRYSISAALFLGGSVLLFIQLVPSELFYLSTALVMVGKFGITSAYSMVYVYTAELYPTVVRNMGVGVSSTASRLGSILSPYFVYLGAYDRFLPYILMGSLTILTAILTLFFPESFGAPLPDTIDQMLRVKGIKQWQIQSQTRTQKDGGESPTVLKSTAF
In words: Inhibition of rat kidney brush border membrane OCTN2 transporter assessed as [3H]carnitine uptake after 10 mins.

The target in data set [7] is T2, OCTN2 (organic cation/carnitine transporter 2) (Rattus norvegicus, UniProt O70594).
T2 sequence (O70594 whole entry): T1 sequence (O70594 whole entry)
In words: Inhibition of rat kidney brush border membrane OCTN2 transporter assessed as [3H]carnitine uptake after 30 mins relative to control. The arrangement: scale not given: the % may be the effect or the level left. Conditions: probe [3H]carnitine, read-out: Activity.

`C[N+](C)(C)C[C@H](CC(=O)O)OC(=O)CCCCCO[N+](=O)[O-].[Cl-]`: in data set [1], the Activity was 23 nmol/mL. The figures for the metabolised at 24 h in data set [2], in data set [4] and in data set [5] were 45%, 100% and 100%, respectively. The degraded at 24 h in data set [3] was determined as 100%. Moreover, the IC50 in data set [6] amounted to 76 µM. In data set [7], the activity at 0.5 h came out at 20%.

On to `CCOC(=O)C[C@@H](C[N+](C)(C)C)OC(=O)CCCCCO[N+](=O)[O-].[Cl-]`, for which, in data set [1], the Activity was 22 nmol/mL. For the same compound, the metabolised at 24 h in data set [2], in data set [4] and in data set [5] was 100% each time. For the same compound, the degraded at 24 h in data set [3] is 100%. In addition, the activity at 0.5 h in data set [7] is 1.5%.

`CCOC(=O)C[C@@H](C[N+](C)(C)C)OC(=O)CCCCCCCCCCCCCCCO[N+](=O)[O-].[Cl-]`: in data set [1], the Activity worked out at 40 nmol/mL. For the same compound, the metabolised at 24 h in data set [2] worked out at 100%; in data set [4] it was 73%; in data set [5], 75%. For the same compound, the degraded at 24 h in data set [3] worked out at 100%. Further, the half-maximal inhibitory concentration (IC50) in data set [6] was determined as 443 µM. Besides, the activity at 0.5 h in data set [7] is 3.1%.

Turning to `C[N+](C)(C)C[C@H](CC(=O)O)OC(=O)CCCCCCCCCCCCCCCO[N+](=O)[O-].[Cl-]`, the Activity in data set [1] was 62 nmol/mL. The values for the metabolised at 24 h in data set [2], in data set [4] and in data set [5] were 100%, 56% and 100%, respectively. Further, the degraded at 24 h in data set [3] is 100%. In addition, in data set [6], the IC50 was determined as 53 µM. Also, in data set [7], the activity at 0.5 h turned out to be 16.3%.
